Test results from US5783179A, “C-reactive protein fragment with immunomodulatory activity” (Syntex (U.S.A.) Inc., priority 1991, dated 1998).

Tested on: T241 fibrosarcoma lung metastases
Experiment: Mouse T241 fibrosarcoma model: evaluation of lung metastases after amputation of the tumor-bearing foot
Format: in vivo, male C57BL/6 mice
Details: Day 35, soluble CRP-peptide 1.25 μg per dose
Protocol: The CRP-peptide was assayed for activity in the mouse T241 fibrosarcoma model, whereby the ability to block lung metastasis formation is measured.
The procedures have been described in detail previously (Deodhar, et al, Cancer Res 42:5084-5088, 1982). Suspensions of 5×10^5 viable T241 fibrosarcoma cells in 0.1 ml of Hanks's balanced salt solution were injected subcutaneously into the dorsum of one hind foot of ten male C57BL/6 mice (Jackson Laboratories, Bar Harbor, Me.) per experiment. Seventeen days after tumor implantation, the tumor-bearing foot was amputated below the knee. The mean tumor weight at this stage was 152 ±58 (S.E.M.) mg. The tumor weight was determined by subtracting the weight of an amputated normal foot from that of a tumor-bearing foot. Previous studies have shown that T241 fibrosarcoma starts seeding the lung parenchyma by Day 10 after foot tumor implantation; by Day 17, virtually all animals have lung macro- and/or micrometastases. The animals were then randomized into control and experimental groups, and appropriate therapy was started after amputation of the tumor-bearing foot.
Treatments consisted of intravenous (orbital sinus) injections of liposomes containing CRP, liposomal CRP-peptide of Example 2, or liposomal CRP-peptide of Example 2 plus intraperitoneal injections of non-encapsulated soluble recombinant interleukin-2 (Cetus Corp., Emeryville, Calif.), or non-encapsulated interleukin-2 (IL-2) alone, whereas the control groups received either no treatment, liposomes containing buffer medium alone, or liposomes containing buffer medium plus non-encapsulated CRP peptide. […] On Day 35 of the experiment, all animals were killed, and the lungs were evaluated for number and size of metastases.
Tumor metastases could be clearly recognized as raised, hemorrhagic, opaque, and dense nodules, distinguishable from the smooth, glistening, spongy, and pink normal lung parenchyma. […] To obtain an approximate assessment of the total metastatic tumor burden in the lungs, the "metastatic index", reflecting both number and size of metastases, was calculated as follows. […]

H-IYLGGPFSPNVL-OH [Soluble CRP-peptide]
No. of Metastatic Foci (+ SEM) (MLV: 0.25 μg CRP or CRP-peptide i.v. 3x per week for 2 weeks): 12.9 ± 2.9 | No. Animals with Lung Metastases (MLV: 2.5 μmols lipid containing 0.25 μg CRP or CRP-peptide i.v. 3x per week for 2 weeks): 10/10 | Metastatic Index (+ SEM) (mean of group, MLV: 0.25 μg CRP or CRP-peptide i.v. 3x per week for 2 weeks): 49.7 ± 10.1
